Data reported in patent US20130150340A1, “6-(4-Hydroxy-phenyl)-1H-pyrazolo[3,4-b]pyridine-4-carboxylic acid amide derivatives as kinase inhibitors” (SANOFI, priority 2011, published 2013).

Target: T1, human full-length recombinant PKC βII (Homo sapiens, UniProt P05771)
T1 construct: Active human full-length recombinant PKC βII; purchased Invitrogen GmbH, Darmstadt, Germany
Assay: Determination of PKC βII inhibition (Caliper mobility-shift kinase assay)
Format: biochemical
Details: example compounds at a final concentration of 1.14 μM (±0.15 μM); 60 min incubation at 32° C.
Description: Determination of PKC 3H Inhibition
PKC βII inhibition was determined according to the following protocol:
Active human full-length recombinant PKC βII and the peptide substrate, Fluorescein-RFARKGSLRQKNV, were purchased from Invitrogen GmbH, Darmstadt, Germany. Adenosine-5′-triphosphate (ATP), bovine serum albumine (BSA), dimethylsulphoxide (DMSO), 4-(2-hydroxyethyl)piperazine-1-ethanesulfonic acid (Hepes), Triton X-100, 1,2-Dioleoyl-sn-glycerol (DAG), L-α-Phosphatidyl-L-serine (PS), calcium chloride (CaCl2), and Pluronic F-68 were purchased from Sigma-Aldrich, Munich, Germany. Magnesium chloride, 1 M sodium hydroxide solution, 1M hydrochloric acid solution and EDTA were obtained from Merck Biosciences, Darmstadt, Germany.
Test compounds were diluted to three times the test concentration in buffer 1 (30 mM Hepes-NaOH, pH 7.4, 0.01% Pluronic F-68 and 3% (v/v) DMSO). The PKC βII enzyme was diluted to a concentration of 30 ng/ml in buffer 2 (30 mM Hepes-NaOH, pH 7.4, 15 mM MgCl2, 150 μM CaCl2, 150 μg/ml PS, 60 μg/ml DAG, and 0.045% (w/v) Triton X-100). The peptide substrate and ATP were diluted to concentrations of 3 μM and 120 μM, respectively, in buffer 2. Two μl of the compound solution were mixed with 2 μl of the diluted enzyme in a 384-well small volume microtiter plate (Greiner, Bio-One, Frickenhausen, Germany), and the kinase reaction was initiated by addition of 2 μl of the solution containing peptide substrate and ATP. After 60 min incubation at 32° C., the reaction was stopped by addition of 20 μl of a solution containing 130 mM Hepes-NaOH, pH 7.4, 0.0195% (v/v) Brij-35, 6.5 mM EDTA, 0.13% chip coating reagent 3 (Caliper Lifescience Inc, Hopkinton, Mass.) and 6.5% (v/v) DMSO. Phosphorylation of the substrate peptide was then detected on a Caliper 3000 instrument essentially as described by Pommereau et al (J. Biomol. Screening 2004, 9(5), […]), Separation conditions were as follows: Pressure −0.8 psi, upstream voltage −3000 V, downstream voltage −800 V. Positive controls (buffer 1 instead of compound) and negative controls (buffer 1 instead of compound and buffer 2 instead of kinase solution) were run in parallel on each plate. Fractional turnover (R) was determined as the height of the peak of the phosphorylated peptide product divided by the sum of the unphosphorylated substrate and phosphorylated product peak heights. Percent-inhibition values for the test compounds were determined using the formula
% Inhibition=100*(1−(Rcompound−Rnegative control)/(Rpositive control−Rnegative control).

T1 sequence (P05771 1-673 isoform P05771-2): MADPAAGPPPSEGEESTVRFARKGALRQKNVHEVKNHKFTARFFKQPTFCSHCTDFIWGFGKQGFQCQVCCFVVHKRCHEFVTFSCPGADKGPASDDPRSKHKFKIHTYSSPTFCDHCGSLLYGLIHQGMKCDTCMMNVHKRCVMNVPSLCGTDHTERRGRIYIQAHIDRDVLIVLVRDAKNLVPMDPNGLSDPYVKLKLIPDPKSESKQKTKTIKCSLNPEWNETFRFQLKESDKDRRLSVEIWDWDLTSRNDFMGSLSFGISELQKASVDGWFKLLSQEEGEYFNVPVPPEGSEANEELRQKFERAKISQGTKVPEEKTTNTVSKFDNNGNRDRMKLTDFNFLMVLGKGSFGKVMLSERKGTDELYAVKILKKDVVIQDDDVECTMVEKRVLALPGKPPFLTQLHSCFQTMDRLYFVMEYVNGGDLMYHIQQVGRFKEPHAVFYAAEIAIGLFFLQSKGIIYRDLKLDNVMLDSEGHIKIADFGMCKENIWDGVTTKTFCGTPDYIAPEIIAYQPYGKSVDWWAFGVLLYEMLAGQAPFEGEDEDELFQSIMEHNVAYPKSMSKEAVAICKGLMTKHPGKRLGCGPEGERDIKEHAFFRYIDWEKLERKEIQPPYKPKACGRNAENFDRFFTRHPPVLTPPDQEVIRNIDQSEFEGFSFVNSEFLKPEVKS

SMILES | inhibition at 1.14 µM
N[C@H]1C[C@H](NC(=O)c2cc(-c3ccc(O)cc3)nc3[nH]ncc23)C1 [Example 30, 6-(4-Hydroxy-phenyl)-1H-pyrazolo[3,4-b]pyridine-4-carboxylic acid (trans-3-amino-cyclobutyl)-amide] | 68%
O=C(c1cc(-c2ccc(O)cc2)nc2[nH]ncc12)N1CCC2(CNCCO2)C1 (stereo not drawn) [Example 31, [6-(4-Hydroxy-phenyl)-1H-pyrazolo[3,4-b]pyridin-4-yl]-(6-oxa-2,9-diaza-spiro[4.5]dec-2-yl)-methanone] | 53%
O=C(NC1CCNC2(CCC2)C1)c1cc(-c2ccc(O)cc2)nc2[nH]ncc12 (stereo not drawn) [Example 32, 6-(4-Hydroxy-phenyl)-1H-pyrazolo[3,4-b]pyridine-4-carboxylic acid (5-aza-spiro[3.5]non-8-yl)-amide] | 69%
NC1CCCC(NC(=O)c2cc(-c3ccc(O)cc3)nc3[nH]ncc23)C1 (stereo not drawn) [Example 33, 6-(4-Hydroxy-phenyl)-1H-pyrazolo[3,4-b]pyridine-4-carboxylic acid (3-amino-cyclohexyl)-amide] | 87%
O=C(c1cc(-c2ccc(O)cc2)nc2[nH]ncc12)N1CCC2CNCC21 (stereo not drawn) [Example 34, (Hexahydro-pyrrolo[3,4-b]pyrrol-1-yl)-[6-(4-hydroxy-phenyl)-1H-pyrazolo[3,4-b]pyridin-4-yl]-methanone] | 45%
O=C(NC1CNC1)c1cc(-c2ccc(O)cc2)nc2[nH]ncc12 [Example 35, 6-(4-Hydroxy-phenyl)-1H-pyrazolo[3,4-b]pyridine-4-carboxylic acid azetidin-3-ylamide] | 82%
NC1CN(C(=O)c2cc(-c3ccc(O)cc3)nc3[nH]ncc23)C1 [Example 36, (3-Amino-azetidin-1-yl)-[6-(4-hydroxy-phenyl)-1H-pyrazolo[3,4-b]pyridin-4-yl]-methanone] | 54%
CC1CN(C(=O)c2cc(-c3ccc(O)cc3)nc3[nH]ncc23)CCN1 (stereo not drawn) [Example 37, [6-(4-Hydroxy-phenyl)-1H-pyrazolo[3,4-b]pyridin-4-yl]-(3-methyl-piperazin-1-yl)-methanone] | 91%
NC1CCN(C(=O)c2cc(-c3ccc(O)cc3)nc3[nH]ncc23)CC1 [Example 38, (4-Amino-piperidin-1-yl)-[6-(4-hydroxy-phenyl)-1H-pyrazolo[3,4-b]pyridin-4-yl]-methanone] | 60%
CNC1CCN(C(=O)c2cc(-c3ccc(O)cc3)nc3[nH]ncc23)C1 (stereo not drawn) [Example 39, [6-(4-Hydroxy-phenyl)-1H-pyrazolo[3,4-b]pyridin-4-yl]-(3-methylamino-pyrrolidin-1-yl)-methanone] | 62%
O=C(N[C@@H]1CN2CCC1CC2)c1cc(-c2ccc(O)cc2)nc2[nH]ncc12 [Example 40, 6-(4-Hydroxy-phenyl)-1H-pyrazolo[3,4-b]pyridine-4-carboxylic acid-(S)-(1-Aza-bicyclo[2.2.2]oct-3-yl)amide] | 71%
CN1CCCC(NC(=O)c2cc(-c3ccc(O)cc3)nc3[nH]ncc23)C1 (stereo not drawn) [Example 41, 6-(4-Hydroxy-phenyl)-1H-pyrazolo[3,4-b]pyridine-4-carboxylic acid (1-methyl-piperidin-3-yl)-amide] | 73%
CN(C(=O)c1cc(-c2ccc(O)cc2)nc2[nH]ncc12)C1CCNCC1 [Example 42, 6-(4-Hydroxy-phenyl)-1H-pyrazolo[3,4-b]pyridine-4-carboxylic acid methyl-piperidin-4-yl-amide] | 39%
O=C(c1cc(-c2ccc(O)cc2)nc2[nH]ncc12)N1CCC2(CCNC2)CC1 [Example 43, (2,8-Diaza-spiro[4.5]dec-8-yl)-[6-(4-hydroxy-phenyl)-1H-pyrazolo[3,4-b]pyridin-4-yl]-methanone] | 52%
O=C(c1cc(-c2ccc(O)cc2)nc2[nH]ncc12)N1CCC2(CCNCC2)CC1 [Example 44, (3,9-Diaza-spiro[5.5]undec-3-yl)-[6-(4-hydroxy-phenyl)-1H-pyrazolo[3,4-b]pyridin-4-yl]-methanone] | 44%

Other lines, results leading:

inhibition at 1.14 µM | SMILES
50% | NC1CCN(C(=O)c2cc(-c3ccc(O)cc3)nc3[nH]ncc23)C1 (stereo not drawn) [Example 45, (3-Amino-pyrrolidin-1-yl)-[6-(4-hydroxy-phenyl)-1H-pyrazolo[3,4-b]pyridin-4-yl]-methanone]
39% | O=C(c1cc(-c2ccc(O)cc2)nc2[nH]ncc12)N1CC2CNCC2C1 (stereo not drawn) [Example 46, (Hexahydro-pyrrolo[3,4-c]pyrrol-2-yl)-[6-(4-hydroxy-phenyl)-1H-pyrazolo[3,4-b]pyridin-4-yl]-methanone]
81% | O=C(c1cc(-c2ccc(O)cc2)nc2[nH]ncc12)N1CC2CC1CN2 (stereo not drawn) [Example 47, 2,5-Diaza-bicyclo[2.2.1]hept-2-yl-[6-(4-hydroxy-phenyl)-1H-pyrazolo[3,4-b]pyridin-4-yl]-methanone]
28% | O=C(c1cc(-c2ccc(O)cc2)nc2[nH]ncc12)N1CCC2(CC1)CNc1ccccc12 [Example 49]
97% | O=C(NC1CC2(CCNCC2)c2ccccc21)c1cc(-c2ccc(O)cc2)nc2[nH]ncc12 (stereo not drawn) [Example 50, 6-(4-hydroxy-phenyl)-1H-pyrazolo[3,4-b]pyridine-4-carboxylic acid (2,3-dihydrospiro[1H-indene-1,4′-piperidin]-3-yl)-amide]
38% | CN1CCN(C(=O)c2cc(-c3ccc(O)cc3)nc3[nH]ncc23)CC1 [Example 52, [6-(4-Hydroxy-phenyl)-1H-pyrazolo[3,4-b]pyridin-4-yl]-(4-methyl-piperazin-1-yl)-methanone]
46% | CC(=O)N1CCN(C(=O)c2cc(-c3ccc(O)cc3)nc3[nH]ncc23)CC1 [Example 53, 1-{4-[6-(4-Hydroxy-phenyl)-1H-pyrazolo[3,4-b]pyridine-4-carbonyl]-piperazin-1-yl}-ethanone]
20% | O=C(c1cc(-c2ccc(O)cc2)nc2[nH]ncc12)N1CCC[C@H]1CN1CCCC1 [Example 54, [6-(4-Hydroxy-phenyl)-1H-pyrazolo[3,4-b]pyridin-4-yl]-((S)-2-pyrrolidin-1-ylmethyl-pyrrolidin-1-yl)-methanone]
47% | CN(C)[C@H]1CCN(C(=O)c2cc(-c3ccc(O)cc3)nc3[nH]ncc23)C1 [Example 55, ((S)-3-Dimethylamino-pyrrolidin-1-yl)-[6-(4-hydroxy-phenyl)-1H-pyrazolo[3,4-b]pyridin-4-yl]-methanone]
23% | CC(C)N1CCN(C(=O)c2cc(-c3ccc(O)cc3)nc3[nH]ncc23)CC1 [Example 56, [6-(4-Hydroxy-phenyl)-1H-pyrazolo[3,4-b]pyridin-4-yl]-(4-isopropyl-piperazin-1-yl)-methanone]
28% | O=C(c1cc(-c2ccc(O)cc2)nc2[nH]ncc12)N1CCN(C(=O)C2CC2)CC1 [Example 57, (4-Cyclopropanecarbonyl-piperazin-1-yl)-[6-(4-hydroxy-phenyl)-1H-pyrazolo[3,4-b]pyridin-4-yl]-methanone]
40% | O=C(c1cc(-c2ccc(O)cc2)nc2[nH]ncc12)N1CCN(C2CCCCCC2)CC1 [Example 58, (4-Cycloheptyl-piperazin-1-yl)-[6-(4-hydroxy-phenyl)-1H-pyrazolo[3,4-b]pyridin-4-yl]-methanone]
